Data: publication PMC9133036 (Nature Communications, 2022)
Positions count from the first letter of the chain named. “And” between values parts separate entries of the source, which are not always exact repeats. Equal values may be shown once. Read-outs that look alike come from different tables or passages of the source.

Experiments:
Assay type in all cases: cell-based
OX2R N324A = target: T1, OX2R N324A (Homo sapiens, UniProt O43614, N324A); experiment: IP accumulation assay, OX2R N324A;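 for % IP accumulation: 100% equals the maximal response of wild-type OX2R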
T1 construct: FLAG; expressed in transfected cells; host or cells: HEK293
T1 sequence (O43614 1-444 N324A): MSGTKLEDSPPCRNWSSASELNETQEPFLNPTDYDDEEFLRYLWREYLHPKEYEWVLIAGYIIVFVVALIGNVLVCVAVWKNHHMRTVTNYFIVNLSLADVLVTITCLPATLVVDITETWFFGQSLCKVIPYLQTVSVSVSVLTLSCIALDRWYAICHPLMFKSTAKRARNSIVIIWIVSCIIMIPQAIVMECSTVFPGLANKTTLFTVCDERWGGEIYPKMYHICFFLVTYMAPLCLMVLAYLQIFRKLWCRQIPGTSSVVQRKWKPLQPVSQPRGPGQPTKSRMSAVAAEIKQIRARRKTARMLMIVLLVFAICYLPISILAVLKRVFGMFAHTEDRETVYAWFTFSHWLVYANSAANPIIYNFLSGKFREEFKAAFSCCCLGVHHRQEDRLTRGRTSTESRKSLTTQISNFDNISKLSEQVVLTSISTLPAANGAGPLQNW
From the text: (§1) The IP assay was adapted from a prior precedent. HEK293 cells were maintained in DMEM-high glucose (Millipore Sigma) supplemented with 5% fetal bovine serum (Corning) and penicillin-streptomycin (Millipore Sigma). Receptor constructs used were the full-length wild-type (or mutant) human OX1R and OX2R sequences cloned into pCDNA3. To enhance the Emax in the IP assay, a plasmid encoding full-length human Gαq subunit[66] was co-transfected into HEK293 cells with plasmids encoding orexin receptor constructs using Lipofectamine 3000 (Thermo Fisher). 24 h after transfection, the cells were plated on poly-D-lysine coated (Millipore Sigma) tissue culture-treated 96 well white plates with clear bottoms (Perkin Elmer) at 30,000 cells per well in Inositol-free DMEM (MP Biomedicals) supplemented with 5% fetal bovine serum, 4 mM L-glutamine (Millipore Sigma), penicillin-streptomycin, and about 5 uCi (5 ul) per ml myo-[2-3H] inositol (Perkin Elmer). The following day, the media was replaced with agonists that were diluted in HBSS (Millipore Sigma) containing 10 mM lithium chloride (Millipore Sigma) and incubated at 37 °C for 45 min. Then agonists were removed and cells were lysed on ice for 30 min with 10 mM formic acid (Millipore Sigma). 1.25 mg of poly-lysine coated YSI SPA beads (Perkin Elmer) was added to each well. The plates were mixed on an orbital shaker for 30 min. The plates were read on a MicroBeta scintillation counter (Perkin Elmer) the following day. IP accumulation assays on different constructs were performed in n ≥ 3 independent experiments (each done in duplicate), where n is shown in Supplementary Table 2.

OX2R F227A = target: T2, OX2R F227A (Homo sapiens, UniProt O43614, F227A); experiment: β-arrestin PathHunter assay, OX2R F227A; conditions: for EC50: β-arrestin recruitment; for beta-arrestin recruitment fold change: F227A, listed as OxB
T2 construct: expressed in transfected cells; host or cells: CHO-K1 stably expressing EA β-arrestin2
T2 sequence (O43614 1-444 F227A): T1 sequence (O43614 1-444 N324A) with F227A, A324N
Procedure: β-Arrestin recruitment activity was measured by using the PathHunter system (DiscoveRX) according to the manufacturer’s instruction. Receptor constructs used were the full-length wild-type (or mutant) human OX2R sequences cloned into pCMV-ProLink (DiscoveRX). CHO-K1 cells stably expressing EA β-arrestin2 (DiscoveRX) were plated on 384 well white plates (Thermo Fisher) at 4000 cells/well in HamF12 (Wako Pure Chemical Industries) supplemented with 10% fetal bovine serum (Corning) and penicillin-streptomycin (Wako Pure Chemical Industries) and incubated overnight at 37 °C under 5% CO2. Cells were transfected with plasmids encoding wild type or each mutant ProLink-tagged human OX2R using FuGENE HD (Promega). […] Detection reagent was added and incubated for 1 h at room temperature. Luminescent signal was detected using an EnVision plate reader (PerkinElmer). β-arrestin assays on different constructs were performed in two or three independent experiments (each done in quadruplicate). Dose response curves (shown in Supplementary Fig. 8) were fitted to the three-parameter model ‘log(agonist) vs response’ in GraphPad Prism to determine pEC50 values.

human OX2R wild type = target: T3, human OX2R wild type (Homo sapiens, UniProt O43614); experiment: Inositol phosphate accumulation assay for Gq signaling, OX2R WT; design: FLAG; expressed in transfected cells; host or cells: HEK293; conditions: for Emax: normalized to OX2R WT Emax with the same ligand;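 for % IP accumulation: 100% equals the maximal response of wild-type OX2R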
T3 sequence (O43614 1-444): T1 sequence (O43614 1-444 N324A) with A324N
From the text: as §1

[1] = OXB conc (log, M) -10.29, listed as OXB

## COC(=O)N1CCC[C@H](NS(C)(=O)=O)[C@@H]1CO[C@H]1CC[C@@H](c2ccccc2)CC1 [TAK-925, methyl (2R,3S)−3-[(methylsulfonyl)amino]−2-{[(cis−4-phenylcyclohexyl)oxy]methyl}piperidine-1-carboxylate]
OX2R N324A; IP accumulation
  EC50: 0.018 µM
OX2R N324A; TAK-925 conc (log, M) -4.52
  % IP accumulation: 38.90% and 50.17% and 61.68%
OX2R N324A; TAK-925 conc (log, M) -5.00
  % IP accumulation: 44.83% and 48.29% and 62.09%
OX2R N324A; TAK-925 conc (log, M) -5.48
  % IP accumulation: 54.68% and 49.83% and 60.54%
OX2R N324A; TAK-925 conc (log, M) -5.95
  % IP accumulation: 62.62% and 51.37% and 66.38%
OX2R N324A; TAK-925 conc (log, M) -6.43
  % IP accumulation: 60.89% and 49.04% and 58.43%
OX2R N324A; TAK-925 conc (log, M) -6.91
  % IP accumulation: 55.51% and 43.02% and 53.52%
OX2R N324A; TAK-925 conc (log, M) -7.39
  % IP accumulation: 29.79% and 34.77% and 41.19%
OX2R N324A; TAK-925 conc (log, M) -7.86
  % IP accumulation: 20.98% and 26.21% and 25.22%
OX2R N324A; TAK-925 conc (log, M) -8.34
  % IP accumulation: 10.23% and 11.60% and 16.93%
OX2R N324A; TAK-925 conc (log, M) -8.82
  % IP accumulation: 0.00% and 5.30%
OX2R N324A; TAK-925 conc (log, M) -9.29
  % IP accumulation: 0.24% and 0.00% and 4.28%
OX2R N324A; relative to OX2R WT/TAK-925
  Emax: 55
OX2R F227A; read-out: EC50
  EC50: > 30 µM
OX2R F227A; read-out: pEC50 (converted)
  EC50: > 30.2 µM
Human OX2R wild type; IP accumulation
  EC50: 0.0075 µM
Human OX2R wild type; TAK-925 conc (log, M) -10.25
  % IP accumulation: 0.00%
Human OX2R wild type
  Emax: 100

## orexin B
OX2R N324A; Gq signaling, IP accumulation
  activation of the mutant receptor: fails to activate
OX2R N324A; OXB conc (log, M) -6.95, listed as OXB
  % IP accumulation: 32.75% and 37.01% and 40.09%
OX2R N324A; OXB conc (log, M) -7.43, listed as OXB
  % IP accumulation: 25.51% and 22.88% and 29.36%
OX2R N324A; OXB conc (log, M) -7.91, listed as OXB
  % IP accumulation: 19.13% and 21.90% and 18.40%
OX2R N324A; OXB conc (log, M) -8.39, listed as OXB
  % IP accumulation: 9.56% and 13.73% and 13.07%
OX2R N324A; OXB conc (log, M) -8.86, listed as OXB
  % IP accumulation: 3.38% and 9.31% and 7.17%
OX2R N324A; OXB conc (log, M) -9.34, listed as OXB
  % IP accumulation: 7.35% and 10.16% and 5.28%
OX2R N324A; OXB conc (log, M) -9.82, listed as OXB
  % IP accumulation: 3.06% and 4.95% and 0.00%
OX2R N324A; [1]
  % IP accumulation: 0.00% and 2.10%
OX2R F227A; OxB concentration -6.00 (log, M)
  beta-arrestin recruitment fold change: 9.362 fold and 8.115 fold and 7.068 fold and 6.668 fold
OX2R F227A; OxB concentration -6.52 (log, M)
  beta-arrestin recruitment fold change: 5.797 fold and 5.207 fold and 4.992 fold and 3.983 fold
OX2R F227A; OxB concentration -7.00 (log, M)
  beta-arrestin recruitment fold change: 2.141 fold and 2.264 fold and 1.690 fold and 2.115 fold
OX2R F227A; OxB concentration -7.52 (log, M)
  beta-arrestin recruitment fold change: 0.997 fold and 1.239 fold and 0.840 fold and 1.032 fold
OX2R F227A; OxB concentration -8.00 (log, M)
  beta-arrestin recruitment fold change: 0.797 fold and 0.852 fold and 0.855 fold and 0.772 fold
OX2R F227A; OxB concentration -8.52 (log, M)
  beta-arrestin recruitment fold change: 0.707 fold and 0.923 fold and 0.738 fold and 0.787 fold
OX2R F227A; OxB concentration -9.00 (log, M)
  beta-arrestin recruitment fold change: 0.670 fold and 0.812 fold and 0.735 fold and 0.836 fold
OX2R F227A; OxB concentration -10.00 (log, M)
  beta-arrestin recruitment fold change: 0.813 fold and 0.979 fold and 0.709 fold and 0.989 fold
Human OX2R wild type; OXB conc (log, M) -6.47712, listed as OXB
  % IP accumulation: 93.64% and 92.82% and 91.17% and 95.11% and 103.46%
Human OX2R wild type; [1]
  % IP accumulation: 0.00% and 0.37% and 3.64%
Human OX2R wild type
  Emax: 100
